Reference: patent US11542316B2, “S-Arrestin peptides and therapeutic uses thereof” (APITOPE INTERNATIONAL NV, priority 2017, dated 2023)
Ends that are not written are not given here.

Columns and labels:
[1] = tested on: SAg-specific hybridoma cells / T cell line with VAVY APC; assay: Antigen Processing Independent Presentation System (APIPS) assay, fresh or fixed VAVY APC; format: cell-based, DR3 mice; settings: DR3 hybridoma clone (IL-2, 48 h) or T cell line (IFN-γ, 24 h)
In short: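 SAg-specific hybridomas (5×10^4) or peptide-restimulated T cell lines from immunized DR3 mice were cultured with fresh or 0.5% paraformaldehyde-fixed (5 min, RT) VAVY APCs and peptide (10 or 25 μg/ml). Read-out: IL-2 ELISA at 48 h for hybridomas, IFN-γ ELISA at 24 h for T cell lines.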

[2] = Solubility of peptides; format: physicochemical
Protocol: The solubility of potential apitopes from S—Ag are determined by visual observations and turbidity measurement by UV spectrophotometry at 280 nm. The solubility of the peptides can be modified by adding amino acids ‘GKK’ or ‘KKK’ (or similar) on both the C- and N-terminus of the sequence. Modifications that may be suitable are described in WO2014/072958 (which is hereby incorporated by reference).
For some of these peptides, the parental peptides were insoluble, and solubility is a critical parameter for them to work as a tolerogenic peptide. Several end-terminal modifications can be used and as example used here they were improved by addition of 3 lysines before and after the original peptide sequence (labelled as ‘-KKK’ versions).

Row | Substance | behaves as apitope (response to peptide presented by fresh or fixed APC) [1] | solubility [2]
1 | KKKLTFRRDLYFSRVQVYKKK-NH2 [HIP-17J-KKK] | behave as apitopes | –
2 | KKKAFVEQVANVVLKKK-NH2 [HIP-9K1-KKK, KKKAFVEQVANVVLKKK] | – | soluble
3 | LPLLANNRERRGIA-NH2 [HIP-24HM3, LPLLANNRERRGIA] | behave as apitopes | soluble
4 | LTKTLTLLPLLANNRERR-NH2 [HIP-24DG, LTKTLTLLPLLANNRERR] | behave as apitopes | soluble
5 | VIFKKISRDKSVTIYLG-NH2 [HIP-115NE3, VIFKKISRDKSVTIYLG] | behave as apitopes | insoluble
6 | KKKVIFKKISRDKSVTIYLGKKK-NH2 [HIP-115NE3-KKK] | behave as apitopes | soluble
